Measurements published in patent US20180353507A1, “METHODS OF PREVENTING OR TREATING HYPOGLYCEMIA BY ADMINISTERING A GPR119 AGONIST” (Merck Sharp & Dohme Corp., priority 2015, published 2018).

Legend:
male Wistar Han rats = assay: Hyperinsulinemic-hypoglycemia clamp study; type: in vivo; conditions: for change of systemic blood glucose level during clamp / glucose infusion rate needed to maintain blood glucose at 50 mg/dl: 60 minutes prior to clamp; for change of systemic blood glucose level during clamp: FIG. 6A; for glucose infusion rate needed to maintain blood glucose at 50 mg/dl: FIG. 6B; for systemic epinephrine release at hypoglycemic status: FIG. 7C; for c-peptide release: FIG. 7D
Protocol: FIG. 5 illustrates a scheme and time-course depiction of the hyperinsulinemic-hypoglycemia clamp study performed in rats as described in EXAMPLE 4. Rats were recovered from surgery stress and pre-treated with vehicle, GLIBENCLAMIDE (5 mpk), or GPR119 agonist Compound B (10 mpk) 60 minutes prior to initiation of the clamp. From time zero, rats received an insulin bolus injection initially, then were simultaneously infused with insulin at a steady rate and glucose at an adjusted rate based on the plasma glucose level measured at every 10 minutes. Vertical bars indicate the time points when the blood specimens were collected for measurements of insulin, C-peptide, glucagon, and epinephrine/norepinephrine (0 min, 30 min, 60 min, 90 min and 120 min).
A hyperinsulinemic-hypoglycemia clamp study was performed in male Wistar Han rats as shown in FIG. 5 and described below to explore the potential roles of GPR119 agonists in regulating glucagon secretion at the hypoglycemic status. Three groups were studied, those treated with: (1) vehicle, (2) GPR119 agonist, Compound B, C, F, H, I, M and V (see Table 1 and Table 2), at 10, 30, 100, 100, 100, 30 and 30 mpk, respectively, or (3) GLIBENCLAMIDE, a sulfonylurea insulin secretagogue known to cause hypoglycemia, at 5 mpk. Blood samples (100-150 μl) were collected for insulin, C-peptide, glucagon, and epinephrine/norepinephrine measurements. Terminal bleeding was analyzed for PK measurement.
FIGS. 5, 6A-B, 7A-D and 8A-L illustrate the hyperinsulinemic-hypoglycemia clamp study of EXAMPLE 4. FIG. 5 is a scheme and time-course depiction of the hyperinsulinemic-hypoglycemia clamp study performed in rats. Vertical bars indicate the time points when the rats were infused with compound, or insulin/glucose, or blood specimens were collected for measurements of insulin, C-peptide, glucagon, and epinephrine/norepinephrine. After recovered from surgery stress, rats were pre-treated with vehicle, GLIBENCLAMIDE (5 mpk), or GPR119 agonist Compound B (10 mpk) 60 minutes prior to initiation of the clamp. From time zero, rats received an initial insulin bolus injection followed by simultaneous infusion of insulin at a steady rate and glucose at an adjusted rate. Rat plasma glucose levels (FIG. 6A) were monitored periodically, and the glucose infusion rate (FIG. 6B) was adjusted so that the blood glucose level would be maintained at 50 mg/dl.

pancreas = assay: In situ rat pancreatic perfusion, insulin and glucagon release; set-up: species or system Wistar Han rats; conditions: 500 nM compound, vs vehicle
Protocol: Male Wistar Han rats were purchased from Charles River Laboratories Inc. at 6 weeks of age and housed 2 per cage for two weeks with food and water ad libitum. In Situ Pancreatic perfusions were performed when the rats were eight weeks old. All procedures were performed in accordance with relevant guidelines and regulations. Food was removed 4-5 hours prior to surgery. For each surgery, the rat was fully sedated with 100 mg/kg intraperitoneal (i.p.) Na-pentobarbital (NEMBUTAL) anesthesia. The depth of anesthesia was determined by a “paw pinch” test. Surgery was not initiated until the rat was fully sedated. If necessary an additional 50 mg/kg i.p. dose (50% of original) of NEMBUTAL was given. The peritoneal cavity was opened and coeliac artery was ligated dorsally. […] cannula was inserted into coeliac artery for perfusant afflux. The left gastric artery was ligated at the esophagus-stomach junction. The hepatic portal vein was ligated dorsally and cannulated ventrally (25G cannula; towards liver) for perfusant efflux. Immediately following the surgery, the rat was placed into the perfusion chamber and perfused at 3 ml/minute with modified KREBS-RINGER buffers [see. […] et al. 2012 Reproductive biology and endocrinology 10:110]. The buffers and perfusion chamber were kept warm at 37° C. and saturated with an O^2/CO^2 gases mixture. The buffers were 2 mM or 16 mM glucose and contained either vehicle (0.1%/DMSO) or Compound A (see Table 1) or 30 mM L-Arginine. The perfusant was collected by automated fraction collector at one sample per minute rate with about 90% rate of buffer recovery. Samples were frozen at -70° C. and later analyzed for total insulin and glucagon content. For the buffers: First the following mixture was prepared in water containing 10% NaCl (1.19M), 5% KCL (94 mM), 10% […] (250 mM), 5% CaCl2-2H2O (50 mM), 5% MgSO4-7H2O (24 mM), and 5% KH2PO4 (24 mM). The buffer was then oxygenated for 20 minutes, and 3% dextran and 0.2% BSA (insulin free) were added. Glucose was added from 1M stock solution as needed. FIGS. 4A-B illustrate a pancreatic perfusion assay in Wistar Han rats, and insulin (left panel) and glucagon (right panel) release measurements. As shown (lines with open circles), a basal level of insulin and a fair amount of glucagon were secreted from pancreas when perfused with low glucose (6 mM glucose). […] Application of GPR119 agonist (500 nM Compound A, lines with solid circles) enhanced both basal and glucose-stimulated pancreas insulin secretion (left panel).

[1] = 100 mpk, hypoglycemic status (50 mg/dL), FIGS. 8A-L
[2] = high glucose (12 mM glucose) perfusion
[3] = low glucose (6 mM glucose) perfusion
[4] = 30 mpk, hypoglycemic status (50 mg/dL), FIGS. 8A-L

SMILES: COCc1cnc(N2CCC([C@H]3C[C@H]3CCOc3cc(F)c(CC(=O)N4CCC4)c(F)c3)CC2)nc1 [Compound B]
- change of systemic blood glucose level during clamp (male Wistar Han rats; 10 mpk, compared with vehicle): comparable and slower
- glucose infusion rate needed to maintain blood glucose at 50 mg/dl (male Wistar Han rats; 10 mpk, compared with vehicle): comparable and slower
- systemic epinephrine release at hypoglycemic status (male Wistar Han rats; 10 mpk): only slightly altered
- c-peptide release (male Wistar Han rats; 10 mpk): indistinguishable from vehicle control
- blood glucagon secretion at hypoglycemic status (male Wistar Han rats; 10 mpk, blood glucose dropping to 50 mg/dL, 15-60 minutes, FIGS. 7A-B): significantly elevated

SMILES: COc1ccc(Cl)cc1C(=O)NCCc1ccc(S(=O)(=O)NC(=O)NC2CCCCC2)cc1 [GLIBENCLAMIDE, glibenclamide, reference compound]
- change of systemic blood glucose level during clamp (male Wistar Han rats; 5 mpk): rapidly decreases blood glucose level
- glucose infusion rate needed to maintain blood glucose at 50 mg/dl (male Wistar Han rats; 5 mpk): requires much faster glucose infusion rate
- systemic epinephrine release at hypoglycemic status (male Wistar Han rats; 5 mpk): inhibited this elevation
- c-peptide release (male Wistar Han rats; 5 mpk): promotes c-peptide release
- blood glucagon secretion at hypoglycemic status (male Wistar Han rats; 5 mpk, blood glucose dropping to 50 mg/dL, 15-60 minutes, FIGS. 7A-B): suppressed glucagon secretion

SMILES: C[S+]([O-])c1ccc(OCCCC2CCN(C(=O)OC(C)(C)C)CC2)cc1F (centres unmarked) [Compound I]
- blood glucagon secretion at hypoglycemic status (male Wistar Han rats; [1]): significantly elevated

SMILES: CC1(OC(=O)C2CC3COCC(C2)C3Oc2ncnc(Nc3ccc(C#N)cc3Cl)c2F)CC1 (centres unmarked) [Compound A]
- glucose-repressed glucagon secretion from pancreas (pancreas; [2]): did not affect
- glucose-stimulated pancreas insulin secretion (pancreas; [2]): enhanced
- basal glucagon release from pancreas (pancreas; [3]): elevated basal glucagon release
- basal pancreas insulin secretion (pancreas; [3]): enhanced

SMILES: CCc1cnc(N2CCC(c3nc(COc4ccc(-n5cnnn5)cc4)cs3)CC2)nc1 [Compound H]
- blood glucagon secretion at hypoglycemic status (male Wistar Han rats; [1]): significantly elevated

SMILES: CCc1noc(N2CCC([C@H]3C[C@H]3CCOc3ccc(S(C)(=O)=O)cn3)CC2)n1 [Compound V]
- blood glucagon secretion at hypoglycemic status (male Wistar Han rats; [4]): significantly elevated

SMILES: COc1c(Nc2ccc(S(C)(=O)=O)nc2C)ncnc1OC1CCN(C(=O)OC(C)C)CC1 [Compound F]
- blood glucagon secretion at hypoglycemic status (male Wistar Han rats; [1]): significantly elevated

SMILES: COCc1noc(N2CCC([C@H]3C[C@H]3CCOc3ccc(S(C)(=O)=O)c(F)c3)CC2)n1 [Compound M]
- blood glucagon secretion at hypoglycemic status (male Wistar Han rats; [4]): significantly elevated

SMILES: CS(=O)(=O)c1ccc(OCC[C@@H]2C[C@@H]2C2CCN(c3ncc(Cl)cn3)CC2)nc1 [Compound C]
- blood glucagon secretion at hypoglycemic status (male Wistar Han rats; [4]): significantly elevated
